Eleven compounds from ChEMBL document CHEMBL1201862, “PubChem BioAssay data set” (2004) can be followed below.

Test systems include SW-620; CAKI-1; MDA-MB-435; SK-MEL-5; RPMI-8226; T47D; SNB-75; HCT-116; SK-OV-3; TK-10; UACC-62; BT-549; OVCAR-4; HOP-92; NCI-H23; 786-0; EKVX; PC-3; NCI-H460.
Common to all, as to assay: NCI-60 cell line screen, 48 h

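The compound was tested at five concentrations on cells cultured in 96-well plates, with a 48-hour exposure period. GI50: concentration for 50% inhibition of growth.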 Calls of active or inactive are those of the source. Cut-off read from the data, not from the text of the source: active = GI50 up to about 1.1 µM and inactive = higher. Where only a bound is given, the exact number is not on record here.

As for `CCOC(=O)C(NCc1ccccc1)(NC(=O)c1ccccc1)C(F)(F)F` (centres undefined), the GI50 with SW-620 was 43.6 µM (inactive); with CAKI-1, > 100 µM (inactive); in the test with MDA-MB-435, > 100 µM (inactive); in the test with SK-MEL-5 it was 84.9 µM (inactive); with RPMI-8226 it was 33.3 µM (inactive); in the test with T47D, 38.5 µM (inactive). The GI50 is 68.1 µM (inactive) in the test on SNB-75; > 100 µM (inactive) with HCT-116; > 100 µM (inactive) with SK-OV-3; > 100 µM (inactive) in the test with TK-10; > 100 µM (inactive) in the test with UACC-62; > 100 µM (inactive) in the test with BT-549. The GI50 in the test on OVCAR-4 is 45.3 µM (inactive); in the test with HOP-92, 42.3 µM (inactive); with NCI-H23, > 100 µM (inactive); in the test with 786-0, > 100 µM (inactive); in the test with EKVX, 82.4 µM (inactive); in the test on PC-3, > 100 µM (inactive).
Regarding `N=C(N)SC1c2ccccc2-c2cc([N+](=O)[O-])ccc21` (centres undefined), the GI50 with SW-620 was 3.15 µM (inactive); in the test with CAKI-1, 6.1 µM (inactive); in the test on MDA-MB-435 it was 1.92 µM (inactive); with SK-MEL-5, 3.08 µM (inactive); in the test on NCI-H460, 3.93 µM (inactive); in the test on RPMI-8226, 4.2 µM (inactive). The GI50 in the test with T47D is 2.95 µM (inactive); in the test on SNB-75 it was 2.02 µM (inactive); in the test with HCT-116 it was 4.76 µM (inactive); with SK-OV-3, 4.44 µM (inactive); in the test with TK-10, 8.24 µM (inactive); in the test with UACC-62, 2.86 µM (inactive). The GI50 in the test with BT-549 was 6.05 µM (inactive); in the test on OVCAR-4 it was 5 µM (inactive); with HOP-92 it was 13.7 µM (inactive); with NCI-H23, 4.84 µM (inactive); in the test on 786-0, 4.67 µM (inactive); in the test with EKVX, 10.4 µM (inactive). In the test with PC-3, the GI50 is 3.78 µM (inactive).
On to `O=C(Cc1ccc(Cl)cc1)Nc1ccc2oc(-c3ccccc3)nc2c1`, for which the GI50 with SW-620, in the test with CAKI-1, in the test with MDA-MB-435, with SK-MEL-5, in the test on NCI-H460 and in the test on RPMI-8226 was > 100 µM (inactive) throughout. Further, the GI50 with T47D was > 100 µM (inactive); in the test on SNB-75 it was 24.4 µM (inactive); in the test on HCT-116, > 100 µM (inactive); with SK-OV-3, 77.8 µM (inactive); with TK-10, > 100 µM (inactive); with UACC-62 it was > 100 µM (inactive). Also, the GI50 was > 100 µM (inactive) in the test with BT-549; 29.5 µM (inactive) with OVCAR-4; > 100 µM (inactive) in the test with HOP-92; > 100 µM (inactive) in the test on NCI-H23; 57 µM (inactive) in the test on 786-0; 30.8 µM (inactive) in the test with EKVX. The GI50 with PC-3 was > 100 µM (inactive).
On to `Cn1/c(=N\S(=O)(=O)c2ccccc2)n(S(=O)(=O)c2ccccc2)c2ccccc21`, for which the GI50 in the test with SW-620 is 93.1 µM (inactive); in the test on CAKI-1 it was > 100 µM (inactive); in the test with MDA-MB-435, 58.9 µM (inactive); in the test with SK-MEL-5 it was 35.7 µM (inactive); in the test with RPMI-8226 it was 48.1 µM (inactive); with T47D, 40.6 µM (inactive). The GI50 with SNB-75 is 54.7 µM (inactive); in the test with HCT-116 it was 48.9 µM (inactive); in the test on SK-OV-3 it was > 100 µM (inactive); in the test with TK-10, > 100 µM (inactive); in the test on UACC-62, > 100 µM (inactive); in the test on BT-549, > 100 µM (inactive). The GI50 with OVCAR-4 is > 100 µM (inactive); in the test on HOP-92, > 10 µM (inactive); with NCI-H23, 61 µM (inactive); in the test on 786-0, 88.5 µM (inactive); in the test with EKVX it was 63.5 µM (inactive); in the test on PC-3, 29.5 µM (inactive).
Consider `COc1cccc(NC(=O)CC(=O)N2N=C(C)C(/N=N/c3ccc(S(=O)(=O)CCOS(=O)(=O)O)cc3)C2=O)c1` (centres undefined), for which the GI50 in the test on SW-620 is 2.99 µM (inactive); in the test with CAKI-1 it was 2.45 µM (inactive); in the test with MDA-MB-435, 2.65 µM (inactive); in the test with SK-MEL-5 it was 3.52 µM (inactive); with NCI-H460, 4.49 µM (inactive); in the test on RPMI-8226, 2.75 µM (inactive). The GI50 with T47D was 11.4 µM (inactive); in the test on SNB-75, 3.27 µM (inactive); in the test with HCT-116 it was 3.22 µM (inactive); in the test on TK-10, 5.75 µM (inactive); in the test on BT-549 it was 3.35 µM (inactive); in the test with OVCAR-4, 1.58 µM (inactive). Besides, the GI50 in the test with HOP-92 was 2.21 µM (inactive); in the test with NCI-H23, 4.69 µM (inactive); in the test with 786-0, 2.74 µM (inactive); in the test with EKVX, 17.7 µM (inactive); with PC-3, 3.85 µM (inactive).
Regarding `O=C(NN1C(=O)CSC1c1ccco1)c1ccncc1` (centres undefined), the GI50 with SW-620, in the test on CAKI-1, with MDA-MB-435, in the test on SK-MEL-5, in the test with NCI-H460 and in the test on RPMI-8226 was > 100 µM (inactive) throughout. In addition, the GI50 in the test with T47D, with HCT-116, with SK-OV-3, in the test with TK-10, in the test on UACC-62 and in the test with BT-549 was > 100 µM (inactive) each time. Also, the GI50 in the test on OVCAR-4, in the test on HOP-92, in the test with NCI-H23, in the test on 786-0, in the test on EKVX and in the test with PC-3 was > 100 µM (inactive) each time.
With `[N-]=[N+]=NC1=C(c2ccccc2)C(=O)c2cccc3cccc1c23`, the GI50 is 29.9 µM (inactive) with SW-620; 33.6 µM (inactive) in the test with CAKI-1; 68.4 µM (inactive) in the test on MDA-MB-435; 2.77 µM (inactive) in the test on SK-MEL-5; 5.79 µM (inactive) in the test with NCI-H460; 7 µM (inactive) with RPMI-8226. Moreover, the GI50 in the test on T47D is 5.12 µM (inactive); with SNB-75, 10.2 µM (inactive); in the test with HCT-116, 5.48 µM (inactive); with SK-OV-3, 25.8 µM (inactive); in the test on TK-10, 23.2 µM (inactive); in the test with UACC-62 it was 5.86 µM (inactive). Also, the GI50 with BT-549 is 8.17 µM (inactive); with OVCAR-4, 46.7 µM (inactive); in the test with HOP-92 it was 17.7 µM (inactive); in the test on NCI-H23 it was 24.9 µM (inactive); with 786-0, 15.2 µM (inactive); in the test on PC-3 it was 8.26 µM (inactive).
In the case of `Cn1c(=O)c2c(ncn2CCNC(CO)C(O)c2ccc([N+](=O)[O-])cc2)n(C)c1=O` (centres undefined), the GI50 with SW-620 was > 10 µM (inactive); in the test on CAKI-1, > 100 µM (inactive); in the test on MDA-MB-435 it was > 100 µM (inactive); in the test on SK-MEL-5 it was > 100 µM (inactive); with NCI-H460, > 100 µM (inactive); with RPMI-8226, > 100 µM (inactive). The GI50 was 5.64 µM (inactive) with T47D; > 100 µM (inactive) with HCT-116; > 100 µM (inactive) in the test with SK-OV-3; > 100 µM (inactive) in the test on TK-10; > 100 µM (inactive) with UACC-62; > 100 µM (inactive) in the test on BT-549. The GI50 in the test with OVCAR-4, in the test with HOP-92, in the test on NCI-H23, with 786-0, with EKVX and with PC-3 was > 100 µM (inactive) in each case.
Take `COc1ccc2nc3cccc([N+](=O)[O-])c3c(NCCN(C)C)c2c1`: the GI50 in the test with SW-620 is 0.14 µM (active); with CAKI-1, 0.18 µM (active); in the test on MDA-MB-435, 0.0826 µM (active); with SK-MEL-5, 0.102 µM (active); with NCI-H460, 0.0165 µM (active); in the test with RPMI-8226, 0.0318 µM (active). For the same compound, the GI50 was 0.146 µM (active) with T47D; 0.159 µM (active) in the test with SNB-75; 0.0251 µM (active) with HCT-116; 0.255 µM (active) in the test with SK-OV-3; 0.263 µM (active) with TK-10; 0.0369 µM (active) with BT-549. The GI50 in the test on OVCAR-4 is 0.116 µM (active); in the test with HOP-92, 0.057 µM (active); in the test with NCI-H23, 0.136 µM (active); in the test on 786-0 it was 0.0902 µM (active); in the test on EKVX, 0.186 µM (active); in the test with PC-3, 0.108 µM (active).
Regarding `CCc1n[nH]c(=O)n1NC(=O)CCCC(=O)O`, the GI50 in the test with SW-620, in the test with CAKI-1, in the test on MDA-MB-435, with SK-MEL-5, in the test with NCI-H460 and with RPMI-8226 was > 100 µM (inactive) throughout. Besides, the GI50 with T47D, in the test with HCT-116, in the test with SK-OV-3, with TK-10, in the test with UACC-62 and in the test with BT-549 was > 100 µM (inactive) in each case. The GI50 in the test with OVCAR-4, with HOP-92, with NCI-H23, in the test with 786-0, in the test with EKVX and in the test on PC-3 was > 100 µM (inactive) each time.
Consider `COc1c2ccoc2c(OC)c2oc(=O)ccc12` [ISOPIMPINELLIN], for which the GI50 with SW-620 is > 100 µM (inactive); in the test on CAKI-1 it was 50.5 µM (inactive); with MDA-MB-435, > 100 µM (inactive); in the test on SK-MEL-5, 94.4 µM (inactive); with NCI-H460, > 100 µM (inactive); in the test on RPMI-8226 it was > 100 µM (inactive). Also, the GI50 with T47D was > 100 µM (inactive); with SNB-75 it was 13.1 µM (inactive); in the test with HCT-116 it was > 100 µM (inactive); with TK-10 it was > 100 µM (inactive); with UACC-62, 36.2 µM (inactive); in the test on BT-549 it was > 100 µM (inactive). Further, the GI50 was > 100 µM (inactive) with OVCAR-4; 1.99 µM (inactive) in the test on HOP-92; > 100 µM (inactive) in the test with NCI-H23; > 100 µM (inactive) in the test with 786-0; 70.1 µM (inactive) in the test with EKVX; > 100 µM (inactive) with PC-3.
